Test results: publication PMC3478562 (Biochemical pharmacology, 2011)
Converted amounts (≈) assume the structure as drawn. Blank lines part the entries; values can stand above or below the molecule they belong to.

Experiments:
[1] = tested on: Staphylococcus epidermidis 831; experiment: Antimicrobial activity spectrum MIC; type: cell-based
[2] = tested on: Enterococcus faecalis 101; experiment: Antimicrobial activity spectrum MIC; type: cell-based
Enterococcus faecium 800 = experiment: Antimicrobial activity spectrum MIC; type: cell-based
[3] = tested on: Streptococcus pneumoniae 1195; experiment: Antimicrobial activity spectrum MIC; type: cell-based
[4] = tested on: Streptococcus pyogenes 712; experiment: Antimicrobial activity spectrum MIC; type: cell-based
Escherichia coli 102 = experiment: Antimicrobial activity spectrum MIC; type: cell-based
[5] = tested on: Escherichia coli 120 (acrAB efflux pump deletion); experiment: microbe, parasite or virus in culture; type: cell-based
[6] = tested on: Klebsiella pneumoniae 1339; experiment: Antimicrobial activity spectrum MIC; type: cell-based
Proteus mirabilis 1360 = experiment: Antimicrobial activity spectrum MIC; type: cell-based
[7] = tested on: Pseudomonas aeruginosa 1380; experiment: Antimicrobial activity spectrum MIC; type: cell-based
Candida albicans 2000 = experiment: Antimicrobial activity spectrum MIC; type: cell-based
Aspergillus niger 624 = experiment: Antimicrobial activity spectrum MIC; type: cell-based
Alr [8] = target: T1, Alr (Staphylococcus aureus, UniProt Q6GF03); experiment: Inhibitor reversibility: IC50 after pre-incubation with the enzyme; type: biochemical; settings: pre-incubation 30 minutes vs 6 hours (16 hours)
Alr [9] = target: T1, Alr; experiment: Inhibitor reversibility: pre-incubation and dialysis; type: biochemical; settings: pre-incubated 30 minutes, dialyzed for 16 hours
[10] = tested on: Staphylococcus aureus 328; experiment: S. aureus MIC, broth microdilution
[11] = tested on: Staphylococcus aureus HFH-29568; experiment: S. aureus MIC, broth microdilution; settings: HFH29568
[12] = tested on: Staphylococcus aureus HFH-30364; experiment: S. aureus MIC, broth microdilution; settings: HFH30364
[13] = tested on: Staphylococcus aureus HFH-30522; experiment: S. aureus MIC, broth microdilution; settings: HFH30522
[14] = tested on: Staphylococcus aureus HFH-30032; experiment: S. aureus MIC, broth microdilution; settings: HFH30032
[15] = tested on: Staphylococcus aureus PCI 1158; experiment: S. aureus MIC, broth microdilution; settings: PCI1158
[16] = tested on: Staphylococcus aureus FDA 209; experiment: S. aureus MIC, broth microdilution; settings: FDA209
[17] = tested on: Staphylococcus aureus PCI 124; experiment: S. aureus MIC, broth microdilution; settings: PCI124
S. aureus N315 = experiment: MIC in wild type and Alr overexpressing strains; settings: Staphylococcus aureus
[18] = tested on: S. aureus N315-alr (Alr overexpressing); experiment: MIC in wild type and Alr overexpressing strains; settings: Staphylococcus aureus
S. aureus USA 300 = experiment: MIC in wild type and Alr overexpressing strains; settings: Staphylococcus aureus, USA300
[19] = tested on: S. aureus USA300-alr (Alr overexpressing); experiment: MIC in wild type and Alr overexpressing strains; settings: Staphylococcus aureus

SMILES: C[C@@H]1[C@H](O)[C@@H](C)/C=C/C=C/C=C/C=C/C=C/C=C/C=C/[C@H](O[C@@H]2O[C@H](C)[C@@H](O)[C@H](N)[C@@H]2O)C[C@@H]2O[C@](O)(C[C@@H](O)C[C@@H](O)[C@H](O)CC[C@@H](O)C[C@@H](O)CC(=O)O[C@H]1C)C[C@H](O)[C@H]2C(=O)O [AMPB, Amphotericin B]
MIC [1]: > 64 µg/mL
MIC [2]: > 64 µg/mL
MIC (Enterococcus faecium 800): > 64 µg/mL
MIC [3]: > 64 µg/mL
MIC [4]: > 64 µg/mL
MIC (Escherichia coli 102): > 64 µg/mL
MIC [5]: > 64 µg/mL
MIC [6]: > 64 µg/mL
MIC (Proteus mirabilis 1360): > 64 µg/mL
MIC [7]: > 64 µg/mL

SMILES: N[C@@H]1CON=C1O [DCS, D-cycloserine]
change of IC50 values with longer pre-incubation time (Alr [8]): a significant reduction in the IC50 values occurs with longer pre-incubation time
recovery of Alr activity after dialysis (Alr [9]): no increase in activity
MIC [10]: 12.5 µg/mL (≈ 122 µM)
MIC [11]: 12.5 µg/mL (≈ 122 µM)
MIC [12]: 12.5 µg/mL (≈ 122 µM)
MIC [13]: 12.5 µg/mL (≈ 122 µM)
MIC [14]: 12.5 µg/mL (≈ 122 µM)
MIC [15]: 12.5 µg/mL (≈ 122 µM)
MIC [16]: 12.5 µg/mL (≈ 122 µM)
MIC [17]: 12.5 µg/mL (≈ 122 µM)
MIC (S. aureus N315): 25 µg/mL (≈ 245 µM)
MIC [18]: 25 µg/mL (≈ 245 µM)
MIC (S. aureus USA 300): 25 µg/mL (≈ 245 µM)
MIC [19]: 25 µg/mL (≈ 245 µM)

SMILES: CCC(=O)[O-].[Na+] [sodium propionate]
recovery of Alr activity after dialysis (Alr [9]): recovery of Alr activity

More lines, now with the values ahead:

MIC [1]: > 16 µg/mL
MIC (Enterococcus faecium 800): > 16 µg/mL
MIC [3]: 0.5 µg/mL (≈ 1.51 µM)
MIC (Candida albicans 2000): > 64 µg/mL
MIC (Aspergillus niger 624): > 64 µg/mL
SMILES: O=C(O)c1cn(C2CC2)c2cc(N3CCNCC3)c(F)cc2c1=O [Cipro, Ciprofloxacin]

change of IC50 values with longer pre-incubation time (Alr [8]): no significant reduction in IC50 values
SMILES: CC(=O)OC[C@H](N)C(=O)O [O-acetyl-L- serine, O-acetyl-L-serine]
